Source: paper PMC7026418, “The kinase polypharmacology landscape of clinical PARP inhibitors” (Scientific Reports, 2020)
Read-outs that look alike come from different tables or passages of the source.

What was measured:
Assay in all cases: biochemical
Parameters in all cases: DiscoveRx KINOMEscan active site-directed competition binding; percent of control kinase bound to immobilised ligand
[1] = target: T1, ABL1(F317L)-nonphosphorylated (Homo sapiens, UniProt P00519, F317L)
T1 construct: nonphosphorylated

ABL2 = ABL2 (Homo sapiens, UniProt P42684)
CDK9 = CDK9 (Homo sapiens, UniProt P50750)
CDKL2 = target: T2, CDKL2 (Homo sapiens, UniProt Q92772)
T2 sequence (Q92772 1-493): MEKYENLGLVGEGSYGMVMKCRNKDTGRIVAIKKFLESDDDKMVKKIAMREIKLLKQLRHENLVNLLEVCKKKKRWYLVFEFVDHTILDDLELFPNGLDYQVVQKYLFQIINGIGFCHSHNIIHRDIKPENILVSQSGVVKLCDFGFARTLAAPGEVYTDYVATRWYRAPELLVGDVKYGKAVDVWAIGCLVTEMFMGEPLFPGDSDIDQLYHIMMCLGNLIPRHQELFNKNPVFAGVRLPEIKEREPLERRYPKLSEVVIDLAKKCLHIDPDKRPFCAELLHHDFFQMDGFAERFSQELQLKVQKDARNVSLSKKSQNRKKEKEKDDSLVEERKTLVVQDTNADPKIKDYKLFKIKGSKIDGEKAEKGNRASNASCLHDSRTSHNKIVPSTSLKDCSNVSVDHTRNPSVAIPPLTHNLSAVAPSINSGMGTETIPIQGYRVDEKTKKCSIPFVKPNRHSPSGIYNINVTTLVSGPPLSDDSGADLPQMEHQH

EPHA5 = EPHA5 (Homo sapiens, UniProt P54756)
[2] = target: T3, JAK2(JH1domain-catalytic) (Homo sapiens, UniProt O60674)
T3 construct: JH1domain-catalytic

KIT(L576P) = KIT(L576P) (Homo sapiens, UniProt P10721, L576P)
MAP3K1 = MAP3K1 (Homo sapiens, UniProt Q13233)
NEK6 = NEK6 (Homo sapiens, UniProt Q9HC98)
PIM1 = PIM1 (Homo sapiens, UniProt P11309)
SGK3 = target: T4, SGK3 (Homo sapiens, UniProt Q96BR1)
T4 sequence (Q96BR1 1-496): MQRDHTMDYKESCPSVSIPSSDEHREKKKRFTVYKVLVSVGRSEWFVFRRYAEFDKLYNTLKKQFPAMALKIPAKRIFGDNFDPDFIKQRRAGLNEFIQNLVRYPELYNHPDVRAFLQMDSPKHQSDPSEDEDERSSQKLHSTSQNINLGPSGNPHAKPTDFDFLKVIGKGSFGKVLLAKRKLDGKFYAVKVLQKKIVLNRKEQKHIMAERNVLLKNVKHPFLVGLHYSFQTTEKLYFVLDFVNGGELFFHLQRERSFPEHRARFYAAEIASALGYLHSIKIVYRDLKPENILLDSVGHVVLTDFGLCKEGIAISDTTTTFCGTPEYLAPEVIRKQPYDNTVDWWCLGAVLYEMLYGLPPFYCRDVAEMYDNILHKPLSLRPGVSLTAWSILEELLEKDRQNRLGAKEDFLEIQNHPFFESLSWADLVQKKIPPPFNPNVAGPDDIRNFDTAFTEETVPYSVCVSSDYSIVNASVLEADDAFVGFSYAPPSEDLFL

TAK1 = target: T5, TAK1 (Homo sapiens, UniProt O43318)
T5 construct: gene MAP3K7
T5 sequence (O43318 1-606): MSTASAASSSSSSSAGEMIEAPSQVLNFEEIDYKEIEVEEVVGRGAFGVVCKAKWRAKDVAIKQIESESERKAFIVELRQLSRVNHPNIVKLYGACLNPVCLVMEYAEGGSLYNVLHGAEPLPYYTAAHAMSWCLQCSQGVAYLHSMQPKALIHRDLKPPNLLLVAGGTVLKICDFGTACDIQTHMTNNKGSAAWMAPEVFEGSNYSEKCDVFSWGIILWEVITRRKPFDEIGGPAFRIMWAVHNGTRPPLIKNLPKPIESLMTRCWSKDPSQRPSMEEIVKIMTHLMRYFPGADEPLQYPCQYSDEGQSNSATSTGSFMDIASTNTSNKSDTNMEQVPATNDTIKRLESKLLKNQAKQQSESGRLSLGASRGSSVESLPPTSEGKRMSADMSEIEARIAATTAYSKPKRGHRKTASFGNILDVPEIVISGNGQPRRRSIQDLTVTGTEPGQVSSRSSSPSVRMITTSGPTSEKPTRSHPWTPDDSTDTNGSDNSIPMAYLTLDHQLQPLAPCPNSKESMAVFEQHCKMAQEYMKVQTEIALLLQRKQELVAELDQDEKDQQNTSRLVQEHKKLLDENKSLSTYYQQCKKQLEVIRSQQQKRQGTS

[3] = read-out: Talazoparib (BMN 673) / %Ctrl @ 10000nM
[4] = read-out: Olaparib / %Ctrl @ 10000nM
[5] = read-out: Rucaparib / %Ctrl @ 10000nM, binding competition, % of control
[6] = read-out: Niraparib (MK-4827) / %Ctrl @ 10000nM

Sequence of ABL2 (P42684 whole entry): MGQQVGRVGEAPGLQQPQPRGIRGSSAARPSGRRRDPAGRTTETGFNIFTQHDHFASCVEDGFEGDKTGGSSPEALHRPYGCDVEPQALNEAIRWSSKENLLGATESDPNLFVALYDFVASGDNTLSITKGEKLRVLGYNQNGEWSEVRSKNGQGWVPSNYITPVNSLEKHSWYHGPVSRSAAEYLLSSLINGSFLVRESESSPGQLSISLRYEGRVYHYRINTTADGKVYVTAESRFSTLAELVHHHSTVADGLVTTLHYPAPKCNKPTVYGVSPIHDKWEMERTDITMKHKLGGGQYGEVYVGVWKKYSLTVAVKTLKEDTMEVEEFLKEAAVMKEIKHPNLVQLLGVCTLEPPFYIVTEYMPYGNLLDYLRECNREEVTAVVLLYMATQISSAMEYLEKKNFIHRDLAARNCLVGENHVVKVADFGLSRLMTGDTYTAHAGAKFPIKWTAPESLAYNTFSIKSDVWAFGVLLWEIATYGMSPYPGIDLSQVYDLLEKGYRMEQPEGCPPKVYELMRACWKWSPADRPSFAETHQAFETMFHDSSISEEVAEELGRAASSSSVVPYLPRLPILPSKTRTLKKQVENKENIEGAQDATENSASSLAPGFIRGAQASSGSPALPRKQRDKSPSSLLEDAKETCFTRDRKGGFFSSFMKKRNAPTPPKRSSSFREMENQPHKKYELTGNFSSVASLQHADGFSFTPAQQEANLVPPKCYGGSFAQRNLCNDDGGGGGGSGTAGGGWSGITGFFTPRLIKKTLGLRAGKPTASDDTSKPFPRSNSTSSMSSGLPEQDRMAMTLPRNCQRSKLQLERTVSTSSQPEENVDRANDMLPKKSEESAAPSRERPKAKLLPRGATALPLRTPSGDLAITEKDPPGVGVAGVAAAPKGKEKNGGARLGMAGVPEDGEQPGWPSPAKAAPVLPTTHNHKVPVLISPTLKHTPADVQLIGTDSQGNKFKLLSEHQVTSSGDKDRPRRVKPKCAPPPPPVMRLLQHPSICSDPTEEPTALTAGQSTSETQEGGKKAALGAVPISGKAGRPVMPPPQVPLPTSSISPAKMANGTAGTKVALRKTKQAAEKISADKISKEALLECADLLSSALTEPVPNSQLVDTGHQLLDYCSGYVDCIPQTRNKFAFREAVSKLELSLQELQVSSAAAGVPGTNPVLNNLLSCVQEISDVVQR
Sequence of KIT(L576P) (P10721 whole entry L576P): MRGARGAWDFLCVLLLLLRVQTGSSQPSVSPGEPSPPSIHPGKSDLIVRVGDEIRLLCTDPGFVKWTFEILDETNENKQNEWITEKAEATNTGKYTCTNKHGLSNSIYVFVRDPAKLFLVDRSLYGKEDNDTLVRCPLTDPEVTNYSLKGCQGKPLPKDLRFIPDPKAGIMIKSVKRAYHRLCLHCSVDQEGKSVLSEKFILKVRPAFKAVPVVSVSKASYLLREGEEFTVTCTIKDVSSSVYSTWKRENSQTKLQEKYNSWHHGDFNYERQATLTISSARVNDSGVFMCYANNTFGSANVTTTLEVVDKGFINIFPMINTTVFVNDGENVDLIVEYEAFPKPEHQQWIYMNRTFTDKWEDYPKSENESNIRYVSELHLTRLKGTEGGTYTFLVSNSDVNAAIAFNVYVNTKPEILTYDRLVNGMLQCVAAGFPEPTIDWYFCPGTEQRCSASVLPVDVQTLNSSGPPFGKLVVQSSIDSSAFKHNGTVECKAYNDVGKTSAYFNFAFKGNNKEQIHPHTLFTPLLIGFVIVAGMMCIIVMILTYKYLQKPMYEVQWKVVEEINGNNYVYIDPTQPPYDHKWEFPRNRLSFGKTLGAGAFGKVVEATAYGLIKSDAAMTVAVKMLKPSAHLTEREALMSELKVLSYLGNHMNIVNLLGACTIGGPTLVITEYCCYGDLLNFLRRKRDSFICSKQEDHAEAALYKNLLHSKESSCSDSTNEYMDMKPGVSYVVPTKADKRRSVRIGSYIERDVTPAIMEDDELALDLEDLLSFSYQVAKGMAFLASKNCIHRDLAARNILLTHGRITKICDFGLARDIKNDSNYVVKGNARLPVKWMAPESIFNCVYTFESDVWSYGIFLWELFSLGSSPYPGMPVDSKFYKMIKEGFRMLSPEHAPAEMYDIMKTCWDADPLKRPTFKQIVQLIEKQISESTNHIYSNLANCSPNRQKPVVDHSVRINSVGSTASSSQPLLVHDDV
T3 sequence (O60674 whole entry): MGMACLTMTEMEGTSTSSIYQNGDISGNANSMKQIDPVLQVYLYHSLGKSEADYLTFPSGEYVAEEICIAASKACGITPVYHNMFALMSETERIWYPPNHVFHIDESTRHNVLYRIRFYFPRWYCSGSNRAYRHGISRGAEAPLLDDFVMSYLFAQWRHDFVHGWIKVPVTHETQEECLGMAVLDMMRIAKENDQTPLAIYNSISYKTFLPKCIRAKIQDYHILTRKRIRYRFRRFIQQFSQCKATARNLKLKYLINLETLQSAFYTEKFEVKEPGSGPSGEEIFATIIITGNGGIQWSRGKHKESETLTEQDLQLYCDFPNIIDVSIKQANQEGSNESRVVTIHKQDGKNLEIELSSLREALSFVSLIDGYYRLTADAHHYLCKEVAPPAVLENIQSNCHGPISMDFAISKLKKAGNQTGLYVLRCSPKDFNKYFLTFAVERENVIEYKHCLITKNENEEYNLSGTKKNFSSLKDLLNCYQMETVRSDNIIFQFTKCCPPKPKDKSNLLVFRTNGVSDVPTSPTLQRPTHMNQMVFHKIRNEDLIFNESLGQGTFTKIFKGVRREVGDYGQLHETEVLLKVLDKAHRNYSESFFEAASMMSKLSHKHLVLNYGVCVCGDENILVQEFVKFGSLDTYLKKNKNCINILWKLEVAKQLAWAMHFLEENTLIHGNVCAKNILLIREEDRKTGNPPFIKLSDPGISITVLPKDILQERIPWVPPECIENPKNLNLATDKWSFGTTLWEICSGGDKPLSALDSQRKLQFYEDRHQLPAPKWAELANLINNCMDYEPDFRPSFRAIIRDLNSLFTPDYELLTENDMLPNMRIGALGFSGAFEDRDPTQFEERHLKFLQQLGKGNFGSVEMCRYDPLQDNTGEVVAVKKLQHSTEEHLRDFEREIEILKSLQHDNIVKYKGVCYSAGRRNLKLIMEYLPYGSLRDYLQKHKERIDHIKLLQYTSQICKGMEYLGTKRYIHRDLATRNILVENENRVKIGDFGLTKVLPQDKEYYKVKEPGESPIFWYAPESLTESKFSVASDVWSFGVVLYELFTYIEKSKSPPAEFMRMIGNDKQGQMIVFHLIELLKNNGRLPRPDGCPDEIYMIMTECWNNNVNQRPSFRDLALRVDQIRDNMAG
Sequence of CDK9 (P50750 whole entry): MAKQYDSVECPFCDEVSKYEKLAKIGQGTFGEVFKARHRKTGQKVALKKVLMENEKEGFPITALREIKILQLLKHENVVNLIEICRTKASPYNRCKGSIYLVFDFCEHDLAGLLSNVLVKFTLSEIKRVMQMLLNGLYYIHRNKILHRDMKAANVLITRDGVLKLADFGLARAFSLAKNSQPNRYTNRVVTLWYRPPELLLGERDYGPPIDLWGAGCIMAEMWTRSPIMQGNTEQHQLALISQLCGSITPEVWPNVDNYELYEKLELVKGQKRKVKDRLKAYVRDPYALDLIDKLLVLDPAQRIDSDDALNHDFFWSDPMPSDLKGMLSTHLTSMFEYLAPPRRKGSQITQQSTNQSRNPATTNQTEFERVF
T1 sequence (P00519 whole entry F317L): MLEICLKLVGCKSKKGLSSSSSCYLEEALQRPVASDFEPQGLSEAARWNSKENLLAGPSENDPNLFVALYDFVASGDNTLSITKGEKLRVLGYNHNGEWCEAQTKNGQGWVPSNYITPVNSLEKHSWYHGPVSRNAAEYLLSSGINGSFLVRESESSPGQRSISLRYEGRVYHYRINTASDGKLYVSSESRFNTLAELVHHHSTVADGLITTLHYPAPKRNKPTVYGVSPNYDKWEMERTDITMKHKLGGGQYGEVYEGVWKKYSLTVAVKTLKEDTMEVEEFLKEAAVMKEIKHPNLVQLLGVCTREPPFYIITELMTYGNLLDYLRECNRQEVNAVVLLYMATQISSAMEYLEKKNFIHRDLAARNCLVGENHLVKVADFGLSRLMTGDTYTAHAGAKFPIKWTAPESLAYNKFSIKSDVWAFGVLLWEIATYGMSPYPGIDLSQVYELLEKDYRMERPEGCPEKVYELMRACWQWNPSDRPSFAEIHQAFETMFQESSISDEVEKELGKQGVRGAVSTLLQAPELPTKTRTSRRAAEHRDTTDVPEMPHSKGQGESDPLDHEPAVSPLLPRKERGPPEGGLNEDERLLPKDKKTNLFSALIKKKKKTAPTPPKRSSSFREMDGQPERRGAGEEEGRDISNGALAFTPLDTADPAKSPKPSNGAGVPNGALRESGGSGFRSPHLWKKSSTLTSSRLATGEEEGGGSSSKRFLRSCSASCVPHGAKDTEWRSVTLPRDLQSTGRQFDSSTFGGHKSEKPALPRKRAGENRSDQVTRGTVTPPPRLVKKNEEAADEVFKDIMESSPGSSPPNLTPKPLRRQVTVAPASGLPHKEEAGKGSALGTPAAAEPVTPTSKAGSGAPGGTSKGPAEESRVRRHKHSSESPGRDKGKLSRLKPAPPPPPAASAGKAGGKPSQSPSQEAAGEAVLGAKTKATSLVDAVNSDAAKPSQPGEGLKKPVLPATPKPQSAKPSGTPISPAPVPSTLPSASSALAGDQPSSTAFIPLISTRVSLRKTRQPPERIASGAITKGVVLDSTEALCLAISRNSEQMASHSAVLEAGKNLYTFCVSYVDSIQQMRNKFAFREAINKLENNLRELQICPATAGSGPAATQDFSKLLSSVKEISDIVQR
Sequence of PIM1 (P11309 whole entry): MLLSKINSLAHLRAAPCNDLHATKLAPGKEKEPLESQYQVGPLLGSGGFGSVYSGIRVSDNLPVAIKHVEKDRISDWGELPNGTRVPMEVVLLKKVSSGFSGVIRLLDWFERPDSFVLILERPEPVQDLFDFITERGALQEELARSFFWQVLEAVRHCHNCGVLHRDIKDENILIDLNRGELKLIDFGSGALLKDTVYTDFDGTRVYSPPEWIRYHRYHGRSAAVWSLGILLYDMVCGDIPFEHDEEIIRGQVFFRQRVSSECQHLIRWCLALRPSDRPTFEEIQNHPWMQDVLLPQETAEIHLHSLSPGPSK

Compound: Cn1ncnc1[C@H]1c2n[nH]c(=O)c3cc(F)cc(c23)N[C@@H]1c1ccc(F)cc1 [Talazoparib]
- percent of control binding at 10 µM [1, 3]: 58%
- percent of control binding at 10 µM (ABL2; [3]): 93%
- percent of control binding at 10 µM (CDK9; [3]): 100%
- percent of control binding at 10 µM (CDKL2; [3]): 100%
- percent of control binding at 10 µM (EPHA5; [3]): 96%
- percent of control binding at 10 µM [2, 3]: 93%
- percent of control binding at 10 µM (KIT(L576P); [3]): 100%
- percent of control binding at 10 µM (MAP3K1; [3]): 97%
- percent of control binding at 10 µM (NEK6; [3]): 99%
- percent of control binding at 10 µM (PIM1; [3]): 95%
- percent of control binding at 10 µM (SGK3; [3]): 100%
- percent of control binding at 10 µM (TAK1; [3]): 100%

Compound: O=C(c1cc(Cc2n[nH]c(=O)c3ccccc23)ccc1F)N1CCN(C(=O)C2CC2)CC1 [Olaparib]
- percent of control binding at 10 µM [1, 4]: 81%
- percent of control binding at 10 µM (ABL2; [4]): 100%
- percent of control binding at 10 µM (CDK9; [4]): 100%
- percent of control binding at 10 µM (CDKL2; [4]): 99%
- percent of control binding at 10 µM (EPHA5; [4]): 96%
- percent of control binding at 10 µM [2, 4]: 78%
- percent of control binding at 10 µM (KIT(L576P); [4]): 100%
- percent of control binding at 10 µM (MAP3K1; [4]): 91%
- percent of control binding at 10 µM (NEK6; [4]): 96%
- percent of control binding at 10 µM (PIM1; [4]): 96%
- percent of control binding at 10 µM (SGK3; [4]): 79%
- percent of control binding at 10 µM (TAK1; [4]): 77%

Compound: CNCc1ccc(-c2[nH]c3cc(F)cc4c3c2CCNC4=O)cc1 [Rucaparib]
- percent of control binding at 10 µM [1, 5]: 69%
- percent of control binding at 10 µM (ABL2; [5]): 100%
- percent of control binding at 10 µM (CDK9; [5]): 78%
- percent of control binding at 10 µM (CDKL2; [5]): 59%
- percent of control binding at 10 µM (EPHA5; [5]): 93%
- percent of control binding at 10 µM [2, 5]: 70%
- percent of control binding at 10 µM (KIT(L576P); [5]): 88%
- percent of control binding at 10 µM (MAP3K1; [5]): 98%
- percent of control binding at 10 µM (NEK6; [5]): 89%
- percent of control binding at 10 µM (PIM1; [5]): 2.8%
- percent of control binding at 10 µM (SGK3; [5]): 38%
- percent of control binding at 10 µM (TAK1; [5]): 38%

Compound: NC(=O)c1cccc2cn(-c3ccc([C@@H]4CCCNC4)cc3)nc12 [Niraparib]
- percent of control binding at 10 µM [1, 6]: 96%
- percent of control binding at 10 µM (ABL2; [6]): 85%
- percent of control binding at 10 µM (CDK9; [6]): 100%
- percent of control binding at 10 µM (CDKL2; [6]): 23%
- percent of control binding at 10 µM (EPHA5; [6]): 94%
- percent of control binding at 10 µM [2, 6]: 82%
- percent of control binding at 10 µM (KIT(L576P); [6]): 80%
- percent of control binding at 10 µM (MAP3K1; [6]): 92%
- percent of control binding at 10 µM (NEK6; [6]): 100%
- percent of control binding at 10 µM (PIM1; [6]): 18%
- percent of control binding at 10 µM (SGK3; [6]): 98%
- percent of control binding at 10 µM (TAK1; [6]): 38%
